These results are taken from patent US20250241878A1, “TYROSINE AND RESVERATROL DERIVATIVES AS NOVEL MODULATORS OF CELLULAR SERINE ADP-RIBOSYLATION” (UNIVERSITY OF SOUTH CAROLINA, priority 2022, published 2025).

Like-named read-outs stand apart in the source and are kept apart here.

One data set deals with cleaved caspase-3. The experiment in a line: Cleaved caspase-3 immunoblot. Type of data set: cell-based, rat. The note with it: compound alone; trans-RSV at high concentration. The protocol:
FIG. 17E presents immunoblots showing the levels of cleaved caspase-3 in rat cortical neurons (DIV 9/10) after the treatment with D-Tyr (2 mM) for 16 hr.

For another data set, the system named is OGG1. The experiment in a line: OGG1 levels Western blot in cortical neurons. Type of data set: cell-based, rat. As to the method: FIG. 4C presents primary cortical neurons treated with Tyr ([…]) for 8 hr, and OGG1 was detected by Western Blot analysis using anti-OGG1 antibody.
(§1) Cultured neurons (DIV 9-10) were washed once with cold 1×PBS and lysed in cell lysis buffer (20 mM Tris-HCl (pH 7.5), 150 mM NaCl, 1 mM Na2EDTA, 1 mM EGTA, 1% Triton™, 2.5 mM sodium pyrophosphate, 1 mM beta-glycerophosphate, 1 mM Na3VO4, 1 μg/ml leupeptin supplemented with protease inhibitor). The lysates were centrifuged at 10,000 RPM for 15 mins at 4° C. to separate the chromatin-bound and soluble fractions. Lysates were quantified using Bio-Rad™ Protein Assay and equal amounts of protein were loaded onto a 4 to 12% gradient gel (Invitrogen™ NuPAGE™). Protein was transferred from the gel to 0.2 μm NC membranes at 25 V for 10 mins using transfer stacks (iBlot™ 2-Invitrogen™) and blocked with 5% non-fat milk in TBST (10 mM Tris-HCl pH 8.0, 150 mM NaCl, 0.01% Tween-20) for 1 hr before application of primary antibodies. Primary and secondary antibodies were incubated overnight at 4° C. and for 1 hr at room temperature, respectively. Immobilon® ECL Ultra Western HRP Substrate (WBULS0500, Millipore™) and a luminescent image analyzer (ChemiDoc™ Imaging System, Bio-Rad™) were used to detect proteins. Quantification of western blots was done using ImageJ (Version 1.53c).
In general terms: In western blotting, separated proteins are transferred to a membrane and probed.

In data set [1] the test system is interaction of PARP1 with histone H3. The experiment in a line: PARP1 immunoprecipitation probed for H3. Type of data set: cell-based, rat. As to the method: FIG. 18A presents representative immunoblots and quantification of the interaction of H3 with PARP1. […] The interaction of PARP1 with H3 was determined using anti-H3 antibody.
The subject of another data set is eEF2. Nature of the data set: eEF2 phosphorylation (p-eEF2) Western blot in cortical neurons. The class given is cell-based, rat. The note with it: compound alone. The protocol: (§2) Primary cortical neurons were dissected from E18 Sprague Dawley rat pups in Hibernate E (BrainBits®) and dissociated using the Neural Tissue Dissociation kit (Miltenyi Biotec). Minced cortices were incubated in a pre-warmed enzyme mix at 37° C. for 15 min; tissues were then triturated and strained using a 40 μm cell strainer. After washing and centrifugation, neurons were seeded in 50 μg/ml poly-D-Lysine (Sigma-Aldrich) coated tissue culture plates. NBActive-1 medium (BrainBits®) supplemented with 100 U/ml of Penicillin-Streptomycin (Life Technologies™), 2 mM L-Glutamine (Life Technologies™), and 1×N21 supplement (R&D Systems™) was used as culture medium. For preparation of culture medium containing reduced tyrosine, the components of NBActive-1 medium were altered to combined with a reduced concentration of tyrosine, as mentioned in Table 1, and was supplemented with 100 U/ml of Penicillin-Streptomycin (Life Technologies™), 2 mM L-Glutamine (Life Technologies™), and 1×N21 supplement (R&D Systems™) to obtained culture medium with reduced tyrosine. Control (non-targeting), TyrRS, and PARP1 siRNAs were obtained from Invitrogen™ (#AM4635, s443, and s130207, respectively). Rat cortical neurons at 5 DIV were transfected with 75 nM control or TyrRS siRNA using DharmaFECT™ 3 Transfection Reagent. A second transfection was done two days later using 75 nM of TyrRS siRNA, followed by cell collection or assays after another 48 hr. For PARP1 siRNA, neurons at 7 DIV were transfected with 75 nM siRNA for both control and PARP1 siRNA.
as §1

Another data set has as its system PARP1. The note with it: previously observed; cited from earlier work.
Another data set has as its system AcK56-H3 and AcK16-H4. Nature of the data set: Histone acetylation immunoblot (AcK56-H3, AcK16-H4). Type of data set: cell-based, rat. On the set-up: dose or concentration left out as unconfirmed.
For a further data set, the system named is eIF2α. The experiment in a line: p-eIF2α Western blot in cortical neurons. Type of data set: cell-based, rat. The note with it: compound alone. As to the method:
Primary cortical neurons were dissected from E18 Sprague Dawley rat pups in Hibernate E (BrainBits®) and dissociated using the Neural Tissue Dissociation kit (Miltenyi Biotec). […] After washing and centrifugation, neurons were seeded in 50 μg/ml poly-D-Lysine (Sigma-Aldrich) coated tissue culture plates. NBActive-1 medium (BrainBits®) supplemented with 100 U/ml of Penicillin-Streptomycin (Life TechnologiesTM), 2 mM L-Glutamine (Life TechnologiesTM), and 1×[…] supplement (R&D SystemsTM) was used as culture medium. For preparation of culture medium containing reduced tyrosine, the components of NBActive-1 medium were altered to combined with a reduced concentration of tyrosine, as mentioned in Table 1, and was supplemented with 100 U/ml of Penicillin-Streptomycin (Life TechnologiesTM), 2 mM L-Glutamine (Life TechnologiesTM), and 1×[…] supplement (R&D SystemsTM) to obtained culture medium with reduced tyrosine. […] For PARP1 siRNA, neurons at 7 DIV were transfected with 75 nM siRNA for both control and PARP1 siRNA. […] The lysates were centrifuged at 10,000 RPM for 15 mins at 4° C. to separate the chromatin-bound and soluble fractions. Lysates were quantified using Bio-RadTM Protein Assay and equal amounts of protein were loaded onto a 4 to 12% gradient gel (InvitrogenTM NuPAGETM). […] Quantification of western blots was done using ImageJ (Version 1.53c).

Another data set has as its system TyrRS. The class given is cell-based, rat. The following applies: for effect on NMDA- and MPP+-mediated decrease of neuronal TyrRS: combination with NMDA or MPP+, 4 hr. The protocol:
as §2, §1
Cultured cortical neurons (DIV 9-10) were fixed in 4% formaldehyde for 15 min, followed by permeabilization and blocking for 30 min in 5% BSA (PBS) and 0.1% Tween™ 20 at room temperature. Incubation with primary antibodies was done at 4° C. overnight. The names and dilutions of the primary antibodies used for IF are described in Table 3. Secondary antibodies were incubated for 1 hr at room temperature. Secondary antibodies used were Alexa Fluor® 647 (anti-chicken), Alexa Fluor® 555 (anti-mouse), Alexa Fluor® 488 (anti-rabbit) from Invitrogen™ at 1:1000 dilution. Coverslips were then mounted using DAPI (4′,6-diamidino-2-phenylindole)-supplemented mounting medium, ProLong™ Gold Antifade (Invitrogen™) and imaged with Leica DMI6000 epifluorescent microscope using oil immersion 63×/NA 1.4 objective. The quantification for total protein levels in neurons was done using ImageJ (version 1.53c), and imaging parameters were matched for exposure, gain, and offset.
The various compounds used for treatments and their stock concentrations in Table 4.

Consider `Oc1ccc(/C=C\c2cc(O)cc(O)c2)cc1` [cis-RSV, cis-resveratrol], for which the “levels of cleaved caspase-3” value in the data set on cleaved caspase-3 was “decreased the levels of caspase-3 cleavage”. In the data set with OGG1 (combination with tyrosine), the “effect on tyrosine-mediated decrease of OGG1 levels” value is on record as “rescued”. Further, the “interaction of PARP1 with histone H3” value in data set [1] (cis-RSV) is given as “prevented the interaction of PARP1 with histone H3”. Besides, the “eEF2 phosphorylation (p-eEF2)” value with eEF2 is “activated the dephosphorylation of eEF2”. Besides, in the data set on PARP1, the “auto-PARylation of PARP1” value was “stimulate the auto-PARylation”. Further, the AcK16-H4 acetylation result in the data set with AcK56-H3 and AcK16-H4 (cis-RSV) was “increased the acetylation of H4 lysine 16”. For the same compound, the p-eIF2α levels entry with eIF2α is “triggered a transient increase in the levels of p-eIF2α”. In addition, the TyrRS protein levels result in the data set on TyrRS (cis-RSV 10-50 μM) is “increased TyrRS protein levels both in the nucleus and neurites”. Further, the “effect on trans-RSV- and tyrosine-mediated decrease in TyrRS levels” value in the data set with TyrRS (combination treatment) was “rescued the effects of trans-RSV and tyrosine-mediated decrease in TyrRS levels in a dose-dependent manner”. Besides, the “effect on NMDA- and MPP+-mediated decrease of neuronal TyrRS” value in the data set with TyrRS is “suppressed this effect”. For the same compound, the “effect on nelfinavir-mediated depletion of TyrRS” value in the data set on TyrRS (combination with nelfinavir) is recorded as “rescued”.

For the compound `Oc1ccc(/C=C/c2cc(O)cc(O)c2)cc1` [trans-RSV, trans-resveratrol], in the data set on cleaved caspase-3, the “levels of cleaved caspase-3” value is on record as “increased the levels of cleaved caspase-3”. The “interaction of PARP1 with histone H3” value is given as “increased it” in data set [1] (higher concentrations (≥25 mM) of trans-RSV) and “prevented the interaction of PARP1 with histone H3” in data set [1] (low concentrations of trans-RSV). Moreover, in the data set with eEF2, the “eEF2 phosphorylation (p-eEF2)” value is “increased p-eEF2 levels”. In addition, the AcK16-H4 acetylation entry in the data set with AcK56-H3 and AcK16-H4 (trans-RSV) is “inhibited H3 and H4 acetylation at lysines 56 and 16”. Besides, the AcK56-H3 acetylation result in the data set with AcK56-H3 and AcK16-H4 (trans-RSV) is “inhibited H3 and H4 acetylation at lysines 56 and 16”. Besides, the p-eIF2α levels result in the data set with eIF2α is listed as “sustained the inhibition of eIF2α”. For the same compound, in the data set with TyrRS, the “effect on NMDA- and MPP+-mediated decrease of neuronal TyrRS” value is “exacerbated it”. Moreover, the TyrRS protein levels entry in the data set on TyrRS (high dose of trans-RSV (50 μM)) is listed as “decreased it”; in the data set on TyrRS (low dose of trans-RSV (10 μm)) it was “increased TyrRS”.

On to `N[C@@H](Cc1ccc(O)cc1)C(=O)O` [tyrosine, L-tyrosine], for which the OGG1 levels entry in the data set on OGG1 (compound alone) was “decreased 8-oxoguanine-DNA glycosylase (OGG1) levels”. In addition, the “eEF2 phosphorylation (p-eEF2)” value in the data set with eEF2 is “inhibited eEF2”. Besides, in the data set on PARP1, the “auto-PARylation of PARP1” value is recorded as “inhibits the auto-PARylation of PARP1”. The “time until TyrRS levels were restored” value in the data set with TyrRS (after tyrosine treatment) is 16 to 24 h. In addition, the TyrRS protein levels entry in the data set on TyrRS (compound alone, rat cortical neurons) is listed as “decreased TyrRS”.
